Results on four compounds are retold here after patent US20230218773A1 (priority 2020, published 2023).

Structures are written as SMILES. Numbered stars: 1 amine (or outer) side, 2 acyl side, 3 side chain; on linkers, the order of the positions; unused ones are H or OH. Square brackets hold non-standard residues; d marks the D form. Peptide text beside a SMILES is read from it. * marks the point of attachment. Dolaproine = CO[C@@H]([C@@H]1CCCN1)[C@@H](C)C(=O)O; Hexanoyl(6-maleimido) = O=C1C=CC(=O)N1CCCCCC(=O)*; Dil = CC[C@H](C)[C@H](NC)[C@@H](CC(=O)O)OC; PABC = O=C(OCc1ccc(N[*:1])cc1)[*:2]; X1 = C[C@@H](N*)[C@@H](O)c1ccccc1; Cit = NC(=O)NCCC[C@H](N)C(=O)O; NMeV = CN[C@H](C(=O)O)C(C)C

For data set [1], the system named is MIA PaCa2 cells. The data set can be described thus: Uptake of fluorescein-albumin conjugate with macropinocytosis inhibitor, MIA PaCa2 cells. The data set is classed as cell-based, human. The settings on record: EIPA 50 μM and 75 μM, flow cytometer. The protocol: (§1) FIGS. 10A-10B: (A) MIA PaCa2 cells and (B) PANC1 cells were seeded in 12-well plates at 5×10^5 cells/well and allowed to attach overnight. Cells were first starved in serum free medium for 2 hours followed by treatment with macropinocytosis inhibitor (EIPA: 5-(N-Ethyl-N-isopropyl)amiloride) for 30 min. […] Then cells were detached and analyzed by flow cytometer (Accuri). […] (*p<0.05, **p<0.01)
A general note: In flow cytometry, cells or beads pass a laser one at a time.

For data set [2], the system named is PANC1 cells. The data set can be described thus: Uptake of fluorescein-albumin conjugate with macropinocytosis inhibitor, PANC1 cells. The data set is classed as cell-based, human. The settings on record: EIPA 50 μM and 75 μM, flow cytometer. The protocol: as §1
In data set [3] the test system is MIA PaCa2 xenografts. The data set can be described thus: In vivo antitumor efficacy, MIA PaCa2 xenografts. More on the design: species or system mice. Particulars: every 4 days, 4 doses; for tumor growth: 0.5 mg/kg MMAE equivalent. As for the experimental part:
Tumor-bearing mouse models: Eight to ten week old athymic female NCr nude mice and C57BL/6 mice (Taconic) were used to establish xenograft mouse model and syngeneic mouse model, respectively. […] The cell suspension was then gently mixed with equal volume of Matrigel® (Corning). Subsequently, 100 μL of each mixed cell suspension (MIA PaCa2 and mT4-2D) was subcutaneously inoculated into both flanks of NCr nude mice and C57BL/6 mice, respectively. After the tumors were palpable, tumor volumes were measured two times a week. The tumor volume was calculated as (1/2×length×[…]).
In vivo antitumor efficacy: Mice bearing MIA PaCa2 xenografts and syngeneic mT4-2D C57BL/6 mice were randomized when the tumor sizes were ˜150 mm^3, respectively. […] Tumor sizes were measured by a digital caliper twice a week starting from Day 0. Mice were euthanized when either tumor volume exceeded 1500 mm^3.
Statistical analysis: All of the experiments were repeated at least three times. Statistical significance was calculated using two-way ANOVA followed by Tukey's test. Survival curve was analyzed by log-rank test using GraphPad Prism 8 software.

The subject of data set [4] is MIA PaCa2 cells. The data set can be described thus: MTT assay, MIA PaCa2 cells. The data set is classed as cell-based, human. The text has this:
(§2) Cell lines and culture: Human pancreatic cancer cell line MIA PaCa2 cells and primary umbilical vein endothelial cells (HUVEC) were purchased from American Type Culture Collection (ATCC). Human pancreatic cancer cell line PANC1 cells were kindly provided by Dr. Zhengrong Cui (College of Pharmacy, The University of Texas at Austin). Mouse mT4-2D pancreatic cancer cell line, which is derived from a Kras^+/LSL-G12DTp53^+/LSL-R172HPdx1-Cre transgenic model of pancreatic cancer, was kindly provided by Dr. Kyaw Aung (Livestrong Cancer Institutes, Dell Medical School, The University of Texas at Austin). MIA PaCa2 cells, PANC1, and mT4-2D cells were maintained in Dulbecco's […] with high glucose (Corning). Cell culture medium was supplemented with 10% fetal bovine serum (Gibco) and 100 U/mL penicillin-streptomycin (Gibco). HUVEC cells were maintained according to protocol provided by ATCC. All cells were maintained at 37° C. in a humidified atmosphere with 5% carbon dioxide.
(§3) MTT Assay: Cells were seeded in 96 well plates at a density of 5,000 cells/well. Cells were incubated overnight to allow attachment to the bottom of the plates. […] Untreated cells were used as control. After the treatments, 10 μL of MTT (3-(4,5-Dimethylthiazol-2-yl)-2,5-Diphenyltetrazolium Bromide, 5 mg/mL) was added to each well and incubated for an additional 4 hours. Then, the medium was replaced with 150 μL dimethyl sulfoxide (DMSO). After the formazan crystals were completely dissolved, the absorbance at 570 nm was read by a plate reader (Infinite®200 Pro, Tecan). Cell survival rate was calculated as follows: […]
(§4) The IC50 (half maximal inhibitory concentration) was calculated using GraphPad Prism 8.
(In general: Tetrazolium assays rely on reduction of a dye to a coloured formazan, in cell work by metabolically active cells.)

Data set [5] in a line: Plasma pharmacokinetics of free and total MMAE in MIA PaCa2 tumor-bearing mice. The data set is classed as in vivo. Particulars: for plasma concentration of free MMAE: 10 min after single intravenous dose, 0.5 mg/kg MMAE equivalent. The protocol: (§5) Quantification of MMAE by LC-MS: An Agilent 1260 Infinity liquid chromatography system (G1312B) with an Agilent 6530 Q-TOF mass spectrometer was used to detect the drug MMAE. 5 μL of sample was injected into an Eclipse Plus C18 column (50×2.1 mm, 5 μm) followed by a gradient elution at 0.7 mL/min. […] Electrospray ionization source was used in positive mode. To derive standard curves for MMAE, drug standards were spiked into blank matrix along with internal standard. Samples were then prepared for LC-MS analysis. MMAE was monitored at m/z 740 [M+Na]+, 719 [M+H]+, 371 [M+Na+1-1]^2+ and 360 [M+2H]^2±. Deuterated (D8) MMAE as internal standard was monitored at m/z 748 [M+Na]+, 727 [M+H]+, 375 [M+Na+1-1]^2+ and 364 [M+2H]^2±. The peak area of each drug standard was derived by the peak area of internal standard. The peak area ratios were then plotted as a function of standard concentrations and data points were fitted using linear regression (GraphPad). MMAE concentrations in test samples were quantified using the peak area ratio between MMAE and D8-MMAE and calculated using the standard curves.
(§6) Pharmacokinetics and tissue distribution: Thirty-six mice bearing MIA PaCa2 tumors were equally divided into 4 groups. […] All treatment arms were dosed with an equivalent amount of MMAE at 0.5 mg/kg. At 10 min, 24 h, 48 h, 72 h, 96 h and 168 h post-administration, blood samples were collected from 3 mice in each group through tail vein. Plasma was separated immediately using BD microtainer. At 24 h, 72 h and 168 h after administration, 3 mice from each group were euthanized to collect liver, kidney, and tumor tissue samples. Plasma and tissue samples were stored at −80° C. until further analysis.
(§7) To determine the amount of free MMAE in plasma samples, 1 μL D8-MMAE (250 ng/mL) internal control was added into 10 μL plasma samples and then mixed with 89 μL acetonitrile. The mixture was thoroughly mixed and centrifuged (12,000 rpm, 20 min, 4° C.). The supernatant was collected for LC-MS quantification. To determine free MMAE in mouse tissues, weighed tissues were homogenized with ice-cold PBS containing protease inhibitors (cOmplete™ ULTRA Tablets, Roche) using a tissue homogenizer (Fisher Scientific) to a final concentration of 600 mg/mL. The homogenized suspension was centrifuged at 12,000 rpm for 20 min at 4° C. As an internal control, 1 μL D8-MMAE (250 ng/mL) was added into 20 μL of the supernatant and then mixed with 79 μL acetonitrile. After the mixture was mixed and centrifuged, the supernatant was collected for LC-MS for quantification.
(§8) Briefly, freshly prepared papain (Sigma-Aldrich) was added to plasma and tissue samples at a final concentration of 2 mg/mL, and the mixtures were incubated at 40° C. for 16 hours. The resulting samples were treated as method described above for LC-MS quantification.

For data set [6], the system named is HUVEC cells. The data set can be described thus: MTT assay, HUVEC cells. The data set is classed as cell-based, human.
Source text: as §2
MTT Assay: Cells were seeded in 96 well plates at a density of 5,000 cells/well. […] After the formazan crystals were completely dissolved, the absorbance at 570 nm was read by a plate reader (Infinite®200 Pro, Tecan). Cell survival rate was calculated as follows: […]
as §4

For data set [7], the system named is PANC1 cells. Nature of the data set: MTT assay, PANC1 cells. The data set is classed as cell-based, human.
Source text: as §2, §3, §4

The nature of data set [8]: Maximum tolerated dose in healthy athymic NCr nude mice. The data set is classed as in vivo. The protocol: Maximum tolerated dose: All animal experiments were approved and performed under the guidelines by the Institutional Animal Care and Use Committee at. The University of Texas at Austin. […] Mice were injected every 4 days for a total of 4 repeated doses. Body weight and general appearance of each mice were monitored for 10 days after the last dose of injection.

Data set [9] in a line: Body weight change at 0.9 mg/kg MMAE equivalent dose. The data set is classed as in vivo, mice. Particulars: multiple dosing. As for the experimental part:
FIGS. 15A-15E: Body weight change of mice when dosed with 0.9 mg/kg MMAE equivalent dose. […] Body weights of mice during and after treatments were monitored. (n=5). Data shown as mean±standard deviation. Mice in MMAE group (B) were dosed with 0.9 mg/kg MMAE at Day 0 and 4.

A short description of data set [10]: Tissue distribution of free and total MMAE in MIA PaCa2 tumor-bearing mice. The data set is classed as in vivo. Particulars: 24 hours after single dose. The protocol:
as §5, §6, §7, §8

Data set [11] deals with soft-tissue sarcoma. The settings on record: minimal cardiac toxicity; cited from earlier work.
Setting [12] is: total MMAE in plasma, 0.5 mg/kg i.v.

Consider `CCN(c1nc(N)c(C(=O)N=C(N)N)nc1Cl)C(C)C` [EIPA, 5-(N-Ethyl-N-isopropyl)amiloride], for which the “inhibition of uptake of fluorescein-albumin conjugate (ALDC1)” value in [1] and in [2] was “significantly inhibit” in each case.

Broadly, the IC50 is the concentration at which inhibition is half-maximal. Low values mean greater potency, high ones weaker potency. On to `CC[C@H](C)[C@@H]([C@@H](CC(=O)N1CCC[C@H]1[C@H](OC)[C@@H](C)C(=O)N[C@H](C)[C@@H](O)c1ccccc1)OC)N(C)C(=O)[C@@H](NC(=O)[C@@H](NC)C(C)C)C(C)C` [MMAE, monomethyl auristatin E] (H-[NMeV]V[Dil][Dolaproine]-X1), for which the “tumor growth” value in [3] is on record as “slowed down tumor growth”. Moreover, the IC50 in data set [4] (24 hours) was 0.54 nM; in data set [4] (48 hours), 0.46 nM; in [4] (72 hours), 0.5 nM; in data set [6] (24 hours), 0.067 nM; in [6] (48 hours), 0.012 nM; in [7] (24 hours) it was 0.52 nM. The IC50 in data set [7] (48 hours) and in data set [7] (72 hours) was 0.21 nM throughout. In [5], the “plasma concentration of free MMAE” value came out at 86.03 ± 17.78 ng/mL. Further, the maximum tolerated dose result in [8] (MMAE equivalent dose, every 4 days, 4 doses, body weight change within 20%) is given as “approximately 0.5 mg/kg”. Further, in data set [9], the “loss of body weight” value is more than 20%.

As usually defined, the MRT is the average time that molecules of a dose stay in the body. For `CC[C@H](C)[C@@H]([C@@H](CC(=O)N1CCC[C@H]1[C@H](OC)[C@@H](C)C(=O)N[C@H](C)[C@@H](O)c1ccccc1)OC)N(C)C(=O)[C@@H](NC(=O)[C@H](C(C)C)N(C)C(=O)OCc1ccc(NC(=O)[C@H](CCCNC(N)=O)NC(=O)[C@@H](NC(=O)CCCCCN2C(=O)C=CC2=O)C(C)C)cc1)C(C)C` [MMAE-MAL, mc-vc-pab-MMAE] ({Hexanoyl(6-maleimido)}-V[Cit][PABC][NMeV]V[Dil][Dolaproine]-X1), the “tumor growth” value in data set [3] is reported as “significantly delayed”. In [3] (0.5 mg/kg equivalent to MMAE), the “median survival of tumor-bearing mice” value was 81 days. For the same compound, the “plasma concentration of free MMAE” value in [5] amounted to 669.67 ± 78.94 ng/mL. For the same compound, the “premature release of MMAE in plasma compared to the ALDC1 group” value in data set [5] (free MMAE, 10 min after dosing, 0.5 mg/kg) was found to be 13 fold. Further, in data set [5] (setting [12]), the “AUC 0-∞” value worked out at 141.1938 µg·h/mL, the “AUMC 0-∞” value is on record as 2827552.1 ng/ml*h^2, the Cl is listed as 3.54E−06 (mg/kg)/(ng/ml)/h and the MRT was found to be 20.02 h. This compound came in with a T1/2 in [5] (setting [12]) of 27.82 h. Also, the “AUC 0-t” value in [5] (total MMAE in plasma, time 0 to 168 hours, 0.5 mg/kg i.v.) stood at 139.9281 µg·h/mL. The “amount of free MMAE in tumor compared to the MMAE group” value in data set [10] is on record as “about 2 fold”. Besides, in data set [10] (0.5 mg/kg MMAE), the “accumulation of free MMAE in tumor” value turned out to be 2.2 % ID/g, the “total MMAE in liver” value was 0.3 % ID/g and the “total MMAE in tumor” value stood at 3.3 % ID/g. Also, the “free MMAE in the liver and kidney” value in data set [10] (no statistical difference to MMAE group) is “low levels”. In addition, in data set [8] (percent weight loss from original weight), the “maximum tolerated dose compared with ALDC1” value is “lower maximum tolerated dose”. Further, the “loss of body weight” value in data set [9] is on record as approximately 20%.

Turning to `COc1cccc2c1C(=O)c1c(O)c3c(c(O)c1C2=O)C[C@@](O)(/C(CO)=N/NC(=O)CCCCCN1C(=O)C=CC1=O)C[C@@H]3O[C@H]1C[C@H](N)[C@H](O)[C@H](C)O1` [aldoxorubicin], in data set [11], the “safely administered dose compared to doxorubicin” value is 3.47 fold.
